The values below come from US20120214818A1, “METHODS OF TREATING DIASTOLIC DYSFUNCTION AND RELATED CONDITIONS” (THE BOARD OF TRUSTEES OF THE UNIVERSITY OF ILLINOIS, priority 2009, published 2012).

The experiment relates to isolated ventricular cardiomyocytes from DOCA-salt and sham mice. Kind of experiment: Cell shortening (sarcomere shortening and relengthening) of isolated cardiomyocytes. The class given is cell-based, mouse. To be noted: for relaxation τ (relaxation time constant): 10 μmol/L ranolazine 10 min. How it is done:
Myocyte isolation: Cardiac ventricular myocytes were isolated from the hearts of DOCA-salt or age matched controls mice 14-18 d post-operatively using a modified enzymatic digestion protocol from the Alliance for Cellular Signaling as previously described.^20 Cell shortening and calcium transient measurements: The mechanical properties of the cardiomyocytes were assessed using an IonOptix Myocam System (Ionoptix Inc., Milton, Mass.). Unloaded cardiomyocytes were placed on a glass slide and allowed to adhere for 10 min. Cardiomyocytes were then imaged with an inverted microscope and perfused with a Tyrode's buffer containing 1.2 mmol/L calcium at room temperature. Cardiomyocytes were paced at 0.5 Hz for 10 ms duration, and sarcomere shortening and relengthening were assessed using the following indices: peak fractional shortening (FS), time to 90% peak shortening, and τ, the relaxation time constant (a0+[…]^t/τ, t=time). Cardiomyocytes were treated with 10 μmol/L ranolazine for 10 min prior to evaluation. For calcium transient measurements, cardiomyocytes were loaded with 1 μmol/L Fura 2-AM for 10 min at room temperature, and fluorescence measurements were recorded with a dual-excitation fluorescence photomultiplier system (IonOptix). After loading, the cells were washed and resuspended in normal Tyrode solution. The cardiomyocytes were placed then in the cell chamber, stimulated at 0.5 Hz for 10 ms duration, and imaged through a Fluor×40 objective lens. Cells were exposed to light emitted by a 75-W Xenon lamp and passed though either a 340- or 380-nm wavelength filter. The emitted fluorescence was detected at 510 nm. To take into account any inference from background fluorescence, the background fluorescence for each cardiomyocyte was determined by moving the cardiomyocyte out of the view and recording the fluorescence from the bath solution alone. The mechanical properties of the cardiomyocytes were assessed using an IonOptix Myocam System (Ionoptix Inc., Milton, Mass.). Unloaded cardiomyocytes were placed on a glass slide and allowed to adhere for 10 min at 37° C. Cardiomyocytes were then imaged with an inverted microscope and perfused with a Tyrode's buffer containing 1.2 mmol/L calcium at room temperature. Cardiomyocytes were paced at 0.5, 1, or 2 Hz for 10 ms duration, and sarcomere shortening and relengthening were assessed using the following indices: peak fractional shortening (FS), time to 90% peak shortening, and τ, the relaxation time constant (a0+[…]^t/τ, t=time). Cardiomyocytes were treated with 10 μmol/L ranolazine for 10 min prior to evaluation. […] For calcium transient measurements, cardiomyocytes were loaded with 1 μmol/L fura 2-AM for 10 min at 37° C., and fluorescence measurements were recorded with a dual-excitation fluorescence photomultiplier system (IonOptix). After loading, the cells were washed and resuspended in normal Tyrode solution. The cardiomyocytes were placed then in the cell chamber, stimulated at 0.5, 1, or 2 Hz for 10 ms duration, and imaged through a Fluor×40 objective lens. Cells were exposed to light emitted by a 75-W Xenon lamp and passed though either a 340- or 380-nm wavelength filter. The emitted fluorescence was detected at 510 nm. To take into account any interference, the background fluorescence for each cardiomyocyte was determined by moving the cardiomyocyte out of the view and recording the fluorescence from the bath solution alone. Myocyte isolation: Cardiac ventricular myocytes were isolated from the hearts of DOCA-salt or age matched controls mice 14-18 d post-operatively using a modified enzymatic digestion protocol from the Alliance for Cellular Signaling as previously described (Silberman et al., Circulation 121: 519-528 (2010)).

Setting [1] is: DOCA-salt cardiomyocytes paced at 1 Hz and 2 Hz (FIG. 14).

`COc1ccccc1OCC(O)CN1CCN(CC(=O)Nc2c(C)cccc2C)CC1` (stereo not drawn) [ranolazine]: under setting [1], the “relaxation time (τ) at 1 and 2 Hz pacing” value is recorded as “improved relaxations times at both frequencies”. Further, under setting [1], the “sarcomere length at 1 and 2 Hz pacing” value was “lengthened sarcomere length at both frequencies”. Moreover, the “relaxation τ (relaxation time constant)” value (DOCA-salt cardiomyocytes, 0.5 Hz, 37° C. (Example 7)) came out at 0.13 ± 0.01 s; the “relaxation τ (relaxation time constant)” value (DOCA-salt cardiomyocytes, paced 0.5 Hz, room temperature (Example 3)) was found to be 0.08 ± 0.01 s; the “relaxation τ (relaxation time constant)” value (sham cardiomyocytes, 0.5 Hz, 37° C. (Example 7)) was determined as 0.09 ± 0.02 s; the “relaxation τ (relaxation time constant)” value (sham cardiomyocytes, paced 0.5 Hz, room temperature (Example 3)) was determined as 0.07 ± 0.01 s. In addition, the “resting (baseline) sarcomere length” value came to 1.81±0.01 μm (DOCA-salt cardiomyocytes, 10 μmol/L ranolazine (Example 6)); 1.81±0.01 μm (DOCA-salt cardiomyocytes, 10 μmol/L ranolazine, 37° C. (Example 7)); 1.82±0.01 μm (sham cardiomyocytes, 10 μmol/L ranolazine (Example 6)); 1.86±0.02 μm (sham cardiomyocytes, 10 μmol/L ranolazine, 37° C. (Example 7)). Further, where the note is “sham and DOCA-salt cardiomyocytes, 10 μmol/L ranolazine”, the “contraction (fractional shortening, time to 90% peak contraction)” value is given as “did not affect contraction”. Further, under “washout”, the “reversibility of the effect on relaxation and sarcomere length” value is listed as “reversible upon washout”.
